Results from patent US11691949B2, “Quinoline sulfonamide compounds and their use as antibacterial agents” (OTAGO INNOVATION LIMITED, priority 2017, dated 2023).
In brackets after ≈: the same amount, converted by molar mass. Structures can show the parent of a compound that is named as a salt. Where two headings read alike, the source gives them in different places.

Experiments:
Assay type in all cases: cell-based
S. uberis ATCC 19436 = assay: MIC by broth microdilution, S. uberis; details: Streptococcus uberis
Outline: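 Streptococcus uberis ATCC 19436 was tested in Todd Hewitt Broth by broth microdilution in 96-well flat bottom plates, in biological triplicate. Overnight cells were diluted to OD600 of approximately 0.025, giving about 5×10^5 cfu/mL in the wells. Compounds were serially diluted two-fold to 200 μl, incubated 24 h at 37° C. and 200 rpm, and the MIC was taken from OD600.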

S. aureus ATCC 6538 = assay: MIC by broth microdilution, S. aureus; details: Staphylococcus aureus
Outline: (§1)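 Overnight cultures diluted to ~5×10^5 cfu/mL final; S. aureus in TSB and CAMHB, E. coli in LB and CAMHB, zinc sulphate to 50 μM final as required; two-fold serial dilutions. MIC = lowest concentration with no growth by OD600 after 24 h, 37° C, 200 rpm. MBC by Miles-Misra drop-plate viability count.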

E. coli ATCC 10596 = assay: MIC by broth microdilution, E. coli; details: Escherichia coli
Outline: as §1

[1] = ATCC19436, No Zinc, read-out: S. uberis ATCC 19436 MIC
[2] = ATCC19436, Zinc (50 μM), read-out: S. uberis ATCC 19436 MIC
[3] = ATCC6538, No Zinc, read-out: S. aureus ATCC 6538 MIC
[4] = ATCC6538, Zinc (50 μM), read-out: S. aureus ATCC 6538 MIC
[5] = ATCC 10536 / ATCC 10596, No Zinc, read-out: E. coli ATCC 10536 MIC
[6] = ATCC 10536 / ATCC 10596, Zinc (50 μM), read-out: E. coli ATCC 10536 MIC

SMILES | MIC (S. uberis ATCC 19436; [1]) [µg/mL] | MIC (S. uberis ATCC 19436; [2]) [µg/mL] | MIC (S. aureus ATCC 6538; [3]) [µg/mL] | MIC (S. aureus ATCC 6538; [4]) [µg/mL] | MIC (E. coli ATCC 10596; [5]) [µg/mL] | MIC (E. coli ATCC 10596; [6]) [µg/mL] | MIC (S. uberis ATCC 19436; ATCC19436, read-out: S. uberis ATCC 19436 MIC, No Zinc) [µg/mL] | MIC (S. uberis ATCC 19436; ATCC19436, read-out: S. uberis ATCC 19436 MIC, Zinc (50 μM)) [µg/mL] | MIC (S. aureus ATCC 6538; ATCC6538, read-out: S. aureus ATCC 6538 MIC, No Zinc) [µg/mL] | MIC (S. aureus ATCC 6538; ATCC6538, read-out: S. aureus ATCC 6538 MIC, Zinc (50 μM)) [µg/mL] | MIC (E. coli ATCC 10596; ATCC 10536 / ATCC 10596, read-out: E. coli ATCC 10536 MIC, No Zinc) [µg/mL] | MIC (E. coli ATCC 10596; ATCC 10536 / ATCC 10596, read-out: E. coli ATCC 10536 MIC, Zinc (50 μM)) [µg/mL]
CN(C)Cc1ccc2cccc(NS(=O)(=O)c3ccsc3)c2n1 [ZDR081, N-(2-((Dimethylamino)methyl)quinolin-8-yl)thiophene-3-sulfonamide] | 256 (≈ 737 µM) | 0.25 (≈ 0.719 µM) | > 256 | > 256 | > 256 | > 256 |  |  |  |  |  | 
CN(C)Cc1ccc2cccc(NS(=O)(=O)c3ccc(C(F)(F)F)cc3)c2n1 [ZDR022, N-(2-((Dimethylamino)methyl)quinolin-8-yl)-4-(trifluoromethyl)-benzenesulfonamide] | 64 (≈ 156 µM) | 0.125 (≈ 0.305 µM) | 16 (≈ 39.1 µM) | 8 (≈ 19.5 µM) | > 256 | > 256 |  |  |  |  |  | 
O=S(=O)(Nc1cccc2ccc(CNc3ccccn3)nc12)c1ccc(C(F)(F)F)cc1 [ZDR109, N-(2-((Pyridin-2-ylamino)methyl)quinolin-8-yl)-4-(trifluoromethyl)benzenesulfonamide] | > 256 | 0.5 (≈ 1.09 µM) | > 256 | > 256 | > 256 | > 256 |  |  |  |  |  | 
CC(C)NCc1ccc2cccc(NS(=O)(=O)c3ccc(C(F)(F)F)cc3)c2n1 [ZDR027, N-(2-((Isopropylamino)methyl)quinolin-8-yl)-4-(trifluoromethyl)-benzenesulfonamide] | 64 (≈ 151 µM) | 0.125 (≈ 0.295 µM) | 16 (≈ 37.8 µM) | 16 (≈ 37.8 µM) | > 256 | > 256 |  |  |  |  |  | 
Cc1noc(C)c1S(=O)(=O)Nc1cccc2ccc(CN(C)C)nc12 [ZDR082, N-(2-((Dimethylamino)methyl)quinolin-8-yl)-3,5-dimethylisoxazole-4-sulfonamide] | > 256 | 0.125 (≈ 0.347 µM) | > 256 | > 256 | > 256 | > 256 |  |  |  |  |  | 
CC(=O)c1ccc(S(=O)(=O)Nc2cccc3ccc(CN(C)C)nc23)cc1 [ZDR070, 4-Acetyl-N-(2-((dimethylamino)methyl)quinolin-8-yl)benzenesulfonamide] | > 256 | 0.5 (≈ 1.3 µM) | > 256 | > 256 | > 256 | > 256 |  |  |  |  |  | 
CN(C)Cc1ccc2cccc(NS(=O)(=O)c3cn(C)cn3)c2n1 [ZDR195, N-(2-((Dimethylamino)methyl)quinolin-8-yl)-1-methyl-1H-imidazole-4-sulfonamide] | > 256 | 32 (≈ 92.6 µM) | > 256 | > 256 | > 256 | > 256 |  |  |  |  |  | 
O=S(=O)(Nc1cccc2ccc(CN3CCCCC3)nc12)c1ccc(C(F)(F)F)cc1 [ZDR033, N-(2-((Piperidin-1-yl)methyl)quinolin-8-yl)-4-(trifluoromethyl)-benzenesulfonamide] | > 256 | 0.125 (≈ 0.278 µM) | > 256 | > 256 | > 256 | > 256 |  |  |  |  |  | 
O=S(=O)(Nc1cccc2ccc(CNCC(F)F)nc12)c1ccc(C(F)(F)F)cc1 [ZDR100, N-(2-(((2,2-Difluoroethyl)amino)methyl)quinolin-8-yl)-4-(trifluoromethyl)benzenesulfonamide] | 128 (≈ 287 µM) | 0.25 (≈ 0.561 µM) | 32 (≈ 71.8 µM) | 256 (≈ 575 µM) | > 256 | > 256 |  |  |  |  |  | 
O=S(=O)(NCc1ccc2cccc(NS(=O)(=O)c3ccc(C(F)(F)F)cc3)c2n1)c1ccccc1 [ZDR210, N-(2-(Phenylsulfonamidomethyl)quinolin-8-yl)-4-(trifluoromethyl)benzenesulfonamide] | > 256 | 0.25 (≈ 0.479 µM) | > 256 | > 256 | > 256 | > 256 |  |  |  |  |  | 
O=C(CNCc1ccc2cccc(NS(=O)(=O)c3ccc(C(F)(F)F)cc3)c2n1)NC(CO)(CO)CO [ZDR265, N-(1,3-Dihydroxy-2-(hydroxymethyl)propan-2-yl)-2-(((8-((4-(trifluoromethyl)phenyl)sulfonamido)quinolin-2-yl)methyl)amino)acetamide trifluoroacetate] |  |  |  |  |  |  | 128 | 256 | 64 | 64 | 256 | 256
O=S(=O)(Nc1cccc2ccc(CN3CCOCC3)nc12)c1ccc(C(F)(F)F)cc1 [ZDR029, N-(2-((Morpholin-4-yl)methyl)quinolin-8-yl)-4-(trifluoromethyl)-benzenesulfonamide] | > 256 | 0.25 (≈ 0.554 µM) | > 256 | > 256 | > 256 | > 256 |  |  |  |  |  | 
CN(C)Cc1ccc2cccc(NS(=O)(=O)c3cccc(Br)c3)c2n1 [ZDR309, 3-Bromo-N-(2-((dimethylamino)methyl)quinolin-8-yl)benzenesulfonamide] | 128 (≈ 305 µM) | 0.125 (≈ 0.297 µM) | 64 (≈ 152 µM) | 128 (≈ 305 µM) | > 256 | > 256 |  |  |  |  |  | 
NC(=O)N/N=C/c1ccc2cccc(NS(=O)(=O)c3ccc(C(F)(F)F)cc3)c2n1 [ZDR118, (E)-2-((8-((4-(Trifluoromethyl)phenyl)sulfonamido)quinolin-2-yl)methylene)hydrazine-1-carboxamide] | 32 (≈ 73.2 µM) | 2 (≈ 4.57 µM) | 128 (≈ 293 µM) | 8 (≈ 18.3 µM) | > 256 | > 256 |  |  |  |  |  | 
CN(C)Cc1ccc2cccc(NS(=O)(=O)c3cnn(C)c3)c2n1 [ZDR194, N-(2-((Dimethylamino)methyl)quinolin-8-yl)-1-methyl-1H-pyrazole-4-sulfonamide] | > 256 | 4 (≈ 11.6 µM) | > 256 | > 256 | > 256 | > 256 |  |  |  |  |  | 
CC(=O)Nc1cccc(S(=O)(=O)Nc2cccc3ccc(CN(C)C)nc23)c1 [ZDR327, N-(3-(N-(2-((Dimethylamino)methyl)quinolin-8-yl)sulfamoyl)phenyl)acetamide] | 256 (≈ 642 µM) | 8 (≈ 20.1 µM) | > 256 | > 256 | > 256 | > 256 |  |  |  |  |  | 
CN(C)Cc1ccc2cccc(NS(=O)(=O)N3CCCC3)c2n1 [ZDR204, N-(2-((Dimethylamino)methyl)quinolin-8-yl)pyrrolidine-1-sulfonamide] | 256 (≈ 765 µM) | 0.5 (≈ 1.5 µM) | > 256 | 256 (≈ 765 µM) | > 256 | > 256 |  |  |  |  |  | 
Cc1nc(C)c(S(=O)(=O)Nc2cccc3ccc(CN(C)C)nc23)s1 [ZDR203, N-(2-((Dimethylamino)methyl)quinolin-8-yl)-2,4-dimethylthiazole-5-sulfonamide] | 256 (≈ 680 µM) | 0.5 (≈ 1.33 µM) | > 256 | 64 (≈ 170 µM) | > 256 | > 256 |  |  |  |  |  | 
CN(C)Cc1ccc2cccc(NS(=O)(=O)c3cccc(OC(F)(F)F)c3)c2n1 [ZDR085, N-(2-((Dimethylamino)methyl)quinolin-8-yl)-3-(trifluoromethoxy)benzenesulfonamide] | 128 (≈ 301 µM) | < 0.125 | 256 (≈ 602 µM) | > 256 | 256 (≈ 602 µM) | > 256 |  |  |  |  |  | 
